Several values for one entry are separate records, joined by “and”; a condition that tells them apart may be missing. Equal entries are not always repeated.
Assays:
Type in all cases: cell-based
320 non-olfactory GPCRs [1] = biological target: 320 non-olfactory GPCRs (Homo sapiens, UniProt P30989); conditions: receptor NTSR1; replicate values, Fig_4g
320 non-olfactory GPCRs [2] = biological target: T1, 320 non-olfactory GPCRs (Homo sapiens, UniProt Q9Y5X5); conditions: receptor NPFF2; replicate values, Fig_4g
T1 construct: expressed in transfected cells; host or cells: HTLA cells
T1 sequence (Q9Y5X5 whole entry): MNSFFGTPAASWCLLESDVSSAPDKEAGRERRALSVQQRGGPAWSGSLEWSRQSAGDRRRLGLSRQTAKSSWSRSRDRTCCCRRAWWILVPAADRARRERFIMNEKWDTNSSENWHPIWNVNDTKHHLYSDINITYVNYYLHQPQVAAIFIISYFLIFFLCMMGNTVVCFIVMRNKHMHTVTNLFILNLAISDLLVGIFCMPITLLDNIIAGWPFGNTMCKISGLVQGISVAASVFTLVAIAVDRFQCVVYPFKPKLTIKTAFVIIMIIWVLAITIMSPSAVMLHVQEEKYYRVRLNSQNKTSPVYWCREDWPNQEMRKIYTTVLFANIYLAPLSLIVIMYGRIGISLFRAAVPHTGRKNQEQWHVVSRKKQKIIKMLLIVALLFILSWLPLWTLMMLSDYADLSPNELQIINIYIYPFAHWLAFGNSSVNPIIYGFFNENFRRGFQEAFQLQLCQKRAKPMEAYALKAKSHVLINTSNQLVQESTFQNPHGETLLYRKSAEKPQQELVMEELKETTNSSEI

320 non-olfactory GPCRs [3] = biological target: 320 non-olfactory GPCRs (Homo sapiens, UniProt P32238)
Sequence of 320 non-olfactory GPCRs (Homo sapiens, UniProt P32238) (P32238 whole entry): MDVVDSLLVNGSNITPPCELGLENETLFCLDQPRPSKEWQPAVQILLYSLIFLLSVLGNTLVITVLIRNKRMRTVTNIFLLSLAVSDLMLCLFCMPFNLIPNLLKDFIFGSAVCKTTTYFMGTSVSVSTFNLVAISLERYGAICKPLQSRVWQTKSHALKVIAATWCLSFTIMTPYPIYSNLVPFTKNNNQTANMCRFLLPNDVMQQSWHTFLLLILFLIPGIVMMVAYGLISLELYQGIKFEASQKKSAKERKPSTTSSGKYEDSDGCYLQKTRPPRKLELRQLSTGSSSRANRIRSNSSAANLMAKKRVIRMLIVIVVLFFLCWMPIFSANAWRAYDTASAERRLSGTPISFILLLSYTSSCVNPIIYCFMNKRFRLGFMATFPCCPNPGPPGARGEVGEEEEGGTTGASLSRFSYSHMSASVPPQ

320 non-olfactory GPCRs [4] = biological target: T2, 320 non-olfactory GPCRs (Homo sapiens, UniProt Q16602)
T2 construct: expressed in transfected cells; host or cells: HTLA cells
T2 sequence (Q16602 23-461): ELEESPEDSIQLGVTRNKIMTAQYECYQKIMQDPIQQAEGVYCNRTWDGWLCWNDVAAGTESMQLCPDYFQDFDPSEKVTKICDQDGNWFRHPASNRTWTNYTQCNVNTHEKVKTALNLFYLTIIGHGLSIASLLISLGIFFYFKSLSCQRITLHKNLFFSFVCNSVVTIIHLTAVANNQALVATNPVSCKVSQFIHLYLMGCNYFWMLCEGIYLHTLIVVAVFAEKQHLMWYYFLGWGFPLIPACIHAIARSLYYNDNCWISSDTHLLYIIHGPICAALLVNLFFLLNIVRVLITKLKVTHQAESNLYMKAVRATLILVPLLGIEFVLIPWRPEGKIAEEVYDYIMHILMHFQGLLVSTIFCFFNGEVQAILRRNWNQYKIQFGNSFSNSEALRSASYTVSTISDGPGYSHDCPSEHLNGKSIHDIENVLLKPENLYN
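Wherever Fold of Basal is given: compound tested at 1 µM final concentration.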
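Wherever GPCRome agonism screen response is given: fold over basal response of each receptor without drug.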

Sequence of 320 non-olfactory GPCRs (Homo sapiens, UniProt P30989) (P30989 whole entry): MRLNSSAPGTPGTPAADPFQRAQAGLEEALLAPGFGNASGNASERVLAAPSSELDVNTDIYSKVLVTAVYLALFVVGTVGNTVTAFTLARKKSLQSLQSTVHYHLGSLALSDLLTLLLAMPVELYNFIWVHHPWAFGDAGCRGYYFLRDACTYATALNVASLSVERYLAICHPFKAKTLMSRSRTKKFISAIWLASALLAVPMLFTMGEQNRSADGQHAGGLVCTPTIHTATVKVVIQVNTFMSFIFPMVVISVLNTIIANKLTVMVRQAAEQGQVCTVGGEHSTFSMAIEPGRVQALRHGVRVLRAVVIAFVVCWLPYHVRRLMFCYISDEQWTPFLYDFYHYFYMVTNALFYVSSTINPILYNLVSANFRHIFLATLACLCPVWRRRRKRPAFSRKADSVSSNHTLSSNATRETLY

## CCOc1cccc2cc(C(C)NCC3(O)CCCCC3)oc12 (stereo not shown) [O4LE6]
320 non-olfactory GPCRs [1]
  GPCRome agonism screen response: 0.7939 and 0.7425 and 1.49 and 2.039
320 non-olfactory GPCRs [2]
  GPCRome agonism screen response: 1.684 and 1.1 and 0.9323 and 0.6942
320 non-olfactory GPCRs [3]
  Fold of Basal: 0.8879 and 0.8535 and 0.8133 and 1.029
320 non-olfactory GPCRs [4]
  Fold of Basal: 0.7801 and 0.8303 and 0.6573 and 0.7619

Source: PMC7044277 (Nature Communications, 2020)
